From patent publication US10183011B2, “Anti-depression compounds” (Board of Regents of the University of Texas System, priority 2009, dated 2019)
“And” between values parts separate entries of the source, which are not always exact repeats. Equal entries are not always repeated. Where two headings read alike, the source gives them in different places.

Assays:
H1 histamine receptor = H1 histamine receptor (Homo sapiens, UniProt P35367); test: Binding to the H1 histamine receptor
Experimental: Example 45 Compound and Dimebon were tested for binding to the H1 histamine receptor.

[1] = Pharmacokinetic analysis in plasma and whole brain tissue; assay type: in vivo, mouse; conditions: for concentration at 5 h: brain, five hours after dosing, read-out: brain level
Excerpt: Pharmacokinetic analysis of Example 45 Compound in plasma and whole brain tissue was undertaken after single IV, IP and oral gavage administrations. […] These favorable pharmacological properties facilitated a dose response experiment wherein daily oral administration of Example 45 Compound to adult mice was monitored for both brain levels of the chemical and pro-neurogenic efficacy (FIG. 7).

[2] = test system: neural precursor cells in the subgranular zone of the dentate gyrus; test: In vivo pro-neurogenic efficacy/neuroprotection assay: intracerebroventricular infusion, BrdU incorporation in the dentate gyrus; design: species or system mouse (C57/Bl6); conditions: for pro-neurogenic activity in the in vivo hippocampal neurogenesis assay: direct administration into the brain via Alzet minipumps for one week, 10 μM unless stated
Experimental: Compounds were evaluated for pro-neurogenic efficacy/neuroprotection in our standard in vivo assay at 10 μM concentration in four 12 week old adult male C57/Bl6 mice.
In an effort to identify compounds that might stimulate the birth of new neurons, or protect newborn neurons from cell death, a library of 1,000 compounds was screened using an in vivo assay. In the initial screen, compounds were randomly pooled into groups often and administered intracerebroventricularly at a constant rate over seven days into the left lateral ventricle of living mice via Alzet osmotic mini-pumps. Compounds were administered at a concentration of 10 μM for each molecule, making a total solute concentration of 100 μM. After seven days of infusion at a constant rate of 0.5 μL/hour, a total of 84 μL of volume will have left the pump (0.00084 μMoles) and entered the cerebrospinal fluid. The average volume of a brain from a 12 week old male, C57/B6 mouse in our study is 500 mm^3. […] Under these conditions, at the end of one week of infusion each compound would be present at 1.7 μMolar concentration. Since the actual amount of chemical compound in the brain is likely to be only a fraction of this predicted level, it is reasonable to estimate that compounds were administered at mid to low-nanomolar concentrations.
During compound infusion, animals were intraperitoneally (IP) injected daily with the thymidine analog, bromodeoxyuridine (BrdU), as a means of scoring the birth and survival of proliferating neural precursor cells in the hippocampus. Because both social interaction and voluntary exercise are known to stimulate hippocampal neurogenesis, mice were housed individually without access to running wheels throughout the screening period. Following the week-long period of compound administration, animals were perfused and sacrificed. Dissected brain tissue was fixed, embedded, sectioned, stained with antibodies to BrdU, and evaluated by light microcopy as a means of quantifying neurogenesis and survival of newborn neural precursor cells localized to the subgranular layer of the dentate gyrus on the brain hemisphere contralateral to the side of mini-pump cannulation. Every fifth section throughout the entire rostral-caudal extent of the hippocampus was analyzed, and the total number of BrdU+ cells was normalized against the measured volume of the dentate gyrus. Because both increased proliferation and survival of newborn neurons are important screening parameters, the screen was conducted over seven days in order to cast a wide net to detect molecules that might augment either process. […] Intracranial infusions of either fibroblast growth factor 2 (FGF-2) or artificial cerebral spinal fluid (aCSF) vehicle via the same, week-long protocol were employed as positive and negative controls. There was no difference in the number of BrdU-labeled cells in the dentate gyrus between mice subjected to surgical pump implantation and infusion with vehicle, and mice having had no surgery (FIG. 2). This confirmed the validity of the in vivo approach to assess the ability of intracerebroventricularly infused compounds to enhance hippocampal neurogenesis in the contralateral hemisphere.
In order to further study Example 45 Compound, an in vivo structure activity relationship (SAR) study was conducted using 37 chemical derivatives of the compound for pro-neurogenic activity via direct administration into the brain of adult mice via Alzet minipumps. Compounds were administered for one week at 10 uM into 4 mice per compound, along with daily IP injections of BrdU. Following compound administration, animals were perfused, sacrificed and subjected to sectioning, staining and light microscopy in order to monitor hippocampal neurogenesis localized to the subgranular layer of the dentate gyrus. Roughly 10% of the variant compounds retained pro-neurogenic activity indistinguishable from the parent compound. […]

G93A-SOD1 mutant mice = test: Neurological score and weight loss in G93A-SOD1 mice, treatment from day 80; assay type: in vivo, mouse; conditions: daily treatment from day 80
Experimental: Neurological score was performed every day starting with compound treatment at 80 days, and was determined as follows: ‘0’=full extension of hind legs away from lateral midline when the test mouse was suspended by its tail, and could hold this for 2 seconds, suspended 2-3 times; ‘1’=collapse or partial collapse of leg extension towards lateral midline (weakness) or trembling of hind legs during tail suspension; ‘2’=toes curl under at least twice during walking of 12 inches, or any part of foot drags along cage bottom/table; ‘3’=rigid paralysis or minimal joint movement, foot not being used for forward motion; and ‘4’=mouse cannot right itself within 30 seconds from either side. Upon reaching a score of 2, animals were given a fresh Petri dish with wet food in the dish daily. When mice achieved a score of 4 for two consecutive days they were euthanized.
Mice were weighed daily starting on the day of initiation of compound administration in order to assess disease progression and readjust compound dosage. A digital balance with a step of 0.01 g was used, and mice were placed in a small plastic container on the scale when weighed. Weight was taken between 11 am and 1 pm every day.

hERG channel = hERG channel (Homo sapiens, UniProt Q12809); test: hERG channel binding
Sequence of hERG channel (Q12809 whole entry): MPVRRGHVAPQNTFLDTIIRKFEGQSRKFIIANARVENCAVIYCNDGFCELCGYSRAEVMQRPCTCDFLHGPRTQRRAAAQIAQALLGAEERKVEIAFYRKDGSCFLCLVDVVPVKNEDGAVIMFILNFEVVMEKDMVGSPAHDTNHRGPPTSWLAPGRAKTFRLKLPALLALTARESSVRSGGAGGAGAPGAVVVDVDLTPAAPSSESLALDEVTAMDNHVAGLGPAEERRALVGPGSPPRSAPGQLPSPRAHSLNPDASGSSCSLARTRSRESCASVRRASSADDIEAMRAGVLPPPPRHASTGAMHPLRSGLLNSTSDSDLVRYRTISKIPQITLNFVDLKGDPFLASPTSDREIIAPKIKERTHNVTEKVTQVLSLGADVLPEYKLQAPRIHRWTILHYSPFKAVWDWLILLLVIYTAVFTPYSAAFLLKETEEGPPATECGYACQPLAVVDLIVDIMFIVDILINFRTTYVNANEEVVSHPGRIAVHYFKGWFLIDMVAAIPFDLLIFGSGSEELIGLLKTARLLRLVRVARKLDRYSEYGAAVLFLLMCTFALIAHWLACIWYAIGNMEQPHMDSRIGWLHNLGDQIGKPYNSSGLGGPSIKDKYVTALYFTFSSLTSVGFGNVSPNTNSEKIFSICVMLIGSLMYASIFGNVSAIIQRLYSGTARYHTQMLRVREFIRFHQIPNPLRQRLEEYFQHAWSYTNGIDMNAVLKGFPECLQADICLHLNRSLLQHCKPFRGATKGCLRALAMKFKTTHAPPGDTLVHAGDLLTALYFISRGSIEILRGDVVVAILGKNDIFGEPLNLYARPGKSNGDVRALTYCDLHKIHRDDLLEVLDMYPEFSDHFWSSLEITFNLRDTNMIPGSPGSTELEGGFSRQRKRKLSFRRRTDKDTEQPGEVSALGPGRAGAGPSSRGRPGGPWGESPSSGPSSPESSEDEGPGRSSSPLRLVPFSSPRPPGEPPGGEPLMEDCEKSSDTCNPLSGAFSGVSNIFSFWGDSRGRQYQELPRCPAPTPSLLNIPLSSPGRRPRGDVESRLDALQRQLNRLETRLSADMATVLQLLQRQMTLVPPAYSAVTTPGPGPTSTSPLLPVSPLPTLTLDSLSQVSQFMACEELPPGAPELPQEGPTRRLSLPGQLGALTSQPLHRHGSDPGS

[3] = test system: hypothalamic neural precursor cells; test: Hypothalamic neurogenesis (BrdU); assay type: in vivo, mouse (C57BL/6); conditions: 10 mg/kg twice daily i.p.
Experimental: FIG. 27. Example 45 Compound (P7C3) Augments Hypothalamic Neurogenesis. Administration of P7C3 for a one month period of time augments proliferation of hypothalamic neural precursor cells (shown in red) in the arcuate nucleus (ARC), dorsomedial hypothalamus (DMH) and ventralmedial hypothalamus (VMH). Micrographs shown are representative of staining from every third section throughout the hypothalamus in 4-6 mice for each treatment group.
It was evaluated whether P7C3 might augment hypothalamic neurogenesis by administering either vehicle or P7C3 (10 mg/kg twice daily, i.p.) to nine week old male C57BL/6 mice, starting two days before implantation of 7 day Alzet osmotic minipumps (model 1007d) loaded with BrdU (1 mg/kg). Pumps were connected to a cannula that delivered BrdU at a constant rate into the left lateral ventricle for the seven day period, during which time animals continued to receive either vehicle or P7C3. Pumps were surgically removed at the conclusion of their 7 day operating period, and mice were allowed to survive for 4 more weeks, during which time they continued to receive either vehicle or P7C3. At the end of the 4 week period, mice were deeply anesthetized with intraperitoneal (i.p.) injection of mouse anesthetic cocktail and transcardially perfused with 4% paraformaldehyde (PFA) in phosphate buffered saline (pH 7.4). […]

Sequence of H1 histamine receptor (P35367 whole entry): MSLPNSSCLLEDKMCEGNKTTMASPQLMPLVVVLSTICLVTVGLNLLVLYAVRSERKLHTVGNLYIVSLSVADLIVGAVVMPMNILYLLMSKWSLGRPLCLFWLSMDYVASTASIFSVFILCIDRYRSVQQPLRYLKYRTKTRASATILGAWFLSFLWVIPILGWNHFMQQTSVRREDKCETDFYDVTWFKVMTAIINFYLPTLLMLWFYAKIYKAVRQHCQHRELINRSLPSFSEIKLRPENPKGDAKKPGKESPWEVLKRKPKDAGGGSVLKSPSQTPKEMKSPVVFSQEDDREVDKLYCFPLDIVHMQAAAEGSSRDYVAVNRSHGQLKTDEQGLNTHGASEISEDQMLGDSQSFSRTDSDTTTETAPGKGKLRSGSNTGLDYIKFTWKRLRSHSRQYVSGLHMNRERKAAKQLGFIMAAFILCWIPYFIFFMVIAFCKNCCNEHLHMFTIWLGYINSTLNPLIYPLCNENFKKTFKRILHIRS

SMILES: Cc1ccc2c(c1)c1c(n2CCc2ccc(C)nc2)CCN(C)C1 [Dimebon, 2,3,4,5-Tetrahydro-2,8-dimethyl-5-(2-(6-methyl-3-pyridyl)ethyl)-1H-pyrido(4,3-b)indole, reference compound]
- IC50 (H1 histamine receptor): < 0.1 µM

SMILES: OC(CNc1ccccc1)Cn1c2ccc(Br)cc2c2cc(Br)ccc21 (centres unmarked) [Example 45 Compound]
- IC50 (H1 histamine receptor; both enantiomers): > 10 µM
- concentration at 5 h ([1]; mouse, oral 1 mg/kg): 213 nM and 101 ng/g
- concentration at 5 h ([1]; mouse, oral 2.5 mg/kg): 1.13 µM and 534 ng/g
- concentration at 5 h ([1]; mouse, oral 5 mg/kg): 1.35 µM and 640 ng/g
- half-life ([1]; mouse, plasma, after IP delivery, read-out: plasma terminal half life (converted)): 6.7 h
- blood-brain barrier crossing ([1]; single IV, IP and oral gavage administrations): readily able to cross the blood-brain barrier
- oral bioavailability ([1]; single oral gavage administration): orally bioavailable
- pro-neurogenic activity in the in vivo hippocampal neurogenesis assay [2]: pro-neurogenic or neuroprotective activity at both concentrations
- ceiling of efficacy relative to Dimebon in the in vivo test of hippocampal neurogenesis ([2]; higher than Dimebon): roughly 40%

SMILES: OC(CNc1cccc2ccccc12)Cn1c2ccc(Cl)cc2c2cc(Cl)ccc21 (centres unmarked) [Example P7C3-S184]
- pro-neurogenic activity in the in vivo hippocampal neurogenesis assay [2]: inactive in both in vivo assays

SMILES: COc1cccc(NCC(F)Cn2c3ccc(Br)cc3c3cc(Br)ccc32)c1 (centres unmarked) [Example P7C3A20, N-(3-(3,6-dibromo-9H-carbazol-9-yl)-2-fluoropropyl)-3-methoxyaniline]
- other measures of disease progression (neurological score or weight loss) (G93A-SOD1 mutant mice): did not observe any delay in other measures of disease progression
- hERG channel binding (hERG channel): no hERG channel binding

SMILES: OC(CNc1ccccc1)Cn1c2ccc(Br)cc2c2cc(Br)ccc21 (centres unmarked) [Example P7C3]
- hypothalamic neurogenesis (BrdU positive staining) [3]: markedly enhances hypothalamic neurogenesis
